Experimental data: EPA's ToxRefDB 2

Key:
[1] = tested on: rat; conditions: Multigenerational reproductive toxicity study, sprague dawley, Oral, Feed, dose end: 2 generation
[2] = tested on: rabbit; conditions: Prenatal developmental toxicity study; new zealand white; Oral; Gavage/Intubation; dose end: 19 GD; group: maternal; reproductive / reproductive performance / postimplantation loss / postimplantation loss + reproductive / reproductive performance / …
[3] = tested on: dog; conditions: Chronic toxicity, beagle, Oral, Feed, dose end: 104 week
[4] = tested on: dog; conditions: Combined chronic toxicity/carcinogenicity, beagle, Oral, Feed, dose end: 104 week
[5] = tested on: rat; conditions: Subchronic oral toxicity in rodents, sprague dawley, Gavage/Intubation, dose end: 94 day
[6] = tested on: rat; conditions: Prenatal developmental toxicity study, sprague dawley, Oral, Gavage/Intubation, dose end: 19 GD
[7] = tested on: mouse; conditions: Carcinogenicity, swiss albino, Oral, Feed, dose end: 78 week
[8] = tested on: rat; conditions: Combined chronic toxicity/carcinogenicity, sprague dawley, Oral, Feed, dose end: 104 week
[9] = tested on: dog; conditions: Chronic toxicity; beagle; Oral; Feed; dose end: 52 week; group: systemic; systemic / in life observation / body weight / body weight + systemic / organ weight / spleen / absolute + systemic / organ weight / spleen…
[10] = tested on: dog; conditions: Subchronic oral toxicity in nonrodent, beagle, Capsule, dose end: 26 week, group: systemic, systemic / in life observation / body weight / body weight gain
[11] = tested on: rat; conditions: Subchronic oral toxicity in rodents, other, Feed, dose end: 91 day
[12] = tested on: mouse; conditions: Carcinogenicity, other, Oral, Feed, dose end: 18 month, group: systemic
[13] = tested on: dog; conditions: Chronic toxicity, beagle, Oral, Capsule, dose end: 52 week, group: systemic
[14] = tested on: rat; conditions: Combined chronic toxicity/carcinogenicity; sprague dawley; Oral; Feed; dose end: 104 week; group: systemic; systemic / clinical chemistry / alanine aminotransferase (alt/sgpt) / alanine aminotransferase (alt/sgpt) + systemic / clinical chemistry / …
[15] = tested on: rabbit; conditions: Prenatal developmental toxicity study, other, Oral, Gavage/Intubation, dose end: 19 GD
[16] = tested on: rat; conditions: Carcinogenicity, fischer, Oral, Gavage/Intubation, dose end: 103 week, group: systemic
[17] = tested on: rat; conditions: Subchronic oral toxicity in rodents, fischer, Gavage/Intubation, dose end: 13 week, group: systemic
[18] = tested on: mouse; conditions: Subchronic oral toxicity in rodents, b6c3f1, Gavage/Intubation, dose end: 13 week, group: systemic, systemic / pathology microscopic / stomach / cytoplasmic alteration + systemic / pathology microscopic / stomach / hyperkeratosis + systemic…
[19] = tested on: mouse; conditions: Carcinogenicity; b6c3f1; Oral; Gavage/Intubation; dose end: 104 week; group: systemic; systemic / in life observation / body weight / body weight + systemic / pathology microscopic / stomach / cyst + systemic / pathology …
[20] = group: offspring, systemic / in life observation / body weight / offspring (pup) weight
[21] = group: offspring, systemic / in life observation / body weight / offspring (pup) weight + developmental / offspring survival late / viability index / …
[22] = group: parental, systemic / in life observation / body weight / body weight + systemic / in life observation / food consumption / food consumption + systemic…
[23] = group: cholinesterase, cholinesterase / cholinesterase / cholinesterase / plasma cholinesterase (che)
[24] = group: systemic, systemic / pathology microscopic / intestine small / hypertrophy + systemic / pathology microscopic / stomach / hypertrophy + systemic / …
[25] = group: systemic, systemic / pathology microscopic / intestine small / hypertrophy + systemic / in life observation / clinical signs / soft stools + systemic…
[26] = group: cholinesterase, cholinesterase / cholinesterase / cholinesterase / plasma cholinesterase (che) + cholinesterase / cholinesterase / cholinesterase / brain …
[27] = group: systemic, systemic / organ weight / liver / relative to body weight + systemic / organ weight / ovary / absolute + systemic / organ weight / ovary / …
[28] = group: developmental, systemic / in life observation / body weight / fetal weight
[29] = group: maternal, systemic / in life observation / mortality / mortality + systemic / pathology microscopic / liver / hepatitis + systemic / pathology …
[30] = group: cholinesterase, cholinesterase / cholinesterase / cholinesterase / erythrocyte cholinesterase (che) + cholinesterase / cholinesterase / cholinesterase / …
[31] = group: systemic, systemic / in life observation / body weight / body weight + systemic / in life observation / body weight / body weight gain + systemic / in…
[32] = group: systemic, systemic / clinical chemistry / alkaline phosphatase (alp/alk) / alkaline phosphatase (alp/alk) + systemic / in life observation / body …
[33] = group: cholinesterase, cholinesterase / cholinesterase / cholinesterase / cholinesterase (che)
[34] = group: systemic, systemic / clinical chemistry / alkaline phosphatase (alp/alk) / alkaline phosphatase (alp/alk) + systemic / in life observation / clinical …
[35] = systemic / pathology microscopic / lung / adenoma + systemic / pathology microscopic / lung / carcinoma + systemic / in life observation / …
[36] = systemic / in life observation / body weight / body weight gain + systemic / in life observation / food consumption / food consumption + …
[37] = group: developmental, developmental / developmental malformation / bone / hypoplasia + developmental / developmental malformation / trunk / spina bifida
[38] = group: maternal, systemic / in life observation / body weight / body weight gain
[39] = systemic / in life observation / clinical signs / defecation (diarrhea) + systemic / in life observation / clinical signs / urination
[40] = systemic / in life observation / clinical signs / defecation (diarrhea) + systemic / in life observation / clinical signs / urination + …
[41] = systemic / in life observation / body weight / body weight + systemic / in life observation / clinical signs / defecation (diarrhea) + …

O=P(O)(O)CCCl [Ethephon]
LEL [1, 20]: 198 mg/kg/day | LOAEL [1, 20]: 198 mg/kg/day | NEL [1, 21]: 19.8 mg/kg/day | NOAEL [1, 21]: 19.8 mg/kg/day | LEL [1, 22]: 245 mg/kg/day | LOAEL [1, 22]: 245 mg/kg/day | NEL [1, 22]: 23.7 mg/kg/day | NOAEL [1, 22]: 23.7 mg/kg/day | LEL [2]: 250 mg/kg/day | LOAEL [2]: 250 mg/kg/day | NEL [2]: 125 mg/kg/day | NOAEL [2]: 125 mg/kg/day | LOAEL ([3]; group: cholinesterase, cholinesterase / cholinesterase / cholinesterase / erythrocyte cholinesterase (che)): 7.5 mg/kg/day | LEL [3, 23]: 0.75 mg/kg/day | NEL [3, 23]: < 0.75 mg/kg/day | NOAEL ([3]; group: cholinesterase, cholinesterase / cholinesterase / cholinesterase / plasma cholinesterase (che) + cholinesterase / cholinesterase / cholinesterase / …): 0.75 mg/kg/day | LEL ([3]; group: systemic, systemic / pathology microscopic / intestine small / hypertrophy + systemic / pathology microscopic / stomach / hypertrophy): 7.5 mg/kg/day | LOAEL [3, 24]: > 75 mg/kg/day | NEL [3, 24]: 0.75 mg/kg/day | NOAEL [3, 24]: ≥ 75 mg/kg/day | LEL [4, 23]: 0.75 mg/kg/day | LOAEL [4, 23]: 0.75 mg/kg/day | NEL [4, 23]: < 0.75 mg/kg/day | NOAEL [4, 23]: < 0.75 mg/kg/day | LEL [4, 25]: 7.5 mg/kg/day | LOAEL [4, 25]: > 37.5 mg/kg/day | NEL [4, 25]: 0.75 mg/kg/day | NOAEL [4, 25]: ≥ 37.5 mg/kg/day | LEL [5, 23]: 50 mg/kg/day | NEL [5, 23]: < 50 mg/kg/day | LOAEL [5, 26]: > 200 mg/kg/day | NOAEL [5, 26]: ≥ 200 mg/kg/day | LEL [5, 27]: 200 mg/kg/day | LOAEL [5, 27]: 200 mg/kg/day | NEL [5, 27]: 100 mg/kg/day | NOAEL [5, 27]: 100 mg/kg/day | LEL [6, 28]: 1800 mg/kg/day | LOAEL [6, 28]: 1800 mg/kg/day | NEL [6, 28]: 600 mg/kg/day | NOAEL [6, 28]: 600 mg/kg/day | LEL [6, 29]: 1800 mg/kg/day | LOAEL [6, 29]: 1800 mg/kg/day | NEL [6, 29]: 600 mg/kg/day | NOAEL [6, 29]: 600 mg/kg/day | LEL [7, 30]: 156 mg/kg/day | LOAEL [7, 30]: > 7750 mg/kg/day | NEL [7, 30]: 15.5 mg/kg/day | NOAEL [7, 30]: ≥ 7750 mg/kg/day | LOAEL ([7]; group: systemic, systemic / in life observation / body weight / body weight + systemic / in life observation / body weight / body weight gain): 1630 mg/kg/day | NEL [7, 31]: 156 mg/kg/day | NOAEL [7, 31]: 156 mg/kg/day | LEL ([7]; group: systemic, systemic / in life observation / body weight / body weight + systemic / in life observation / body weight / body weight gain + systemic / …): 1630 mg/kg/day | LEL [8, 30]: 150 mg/kg/day | LOAEL [8, 30]: 150 mg/kg/day | NEL [8, 30]: 15 mg/kg/day | NOAEL [8, 30]: 15 mg/kg/day | LEL [8, 32]: 15 mg/kg/day | LOAEL [8, 32]: > 150 mg/kg/day | NEL [8, 32]: 1.5 mg/kg/day | NOAEL [8, 32]: ≥ 150 mg/kg/day | LEL [9]: 52.1 mg/kg/day | LOAEL [9]: 52.1 mg/kg/day | NEL [9]: 28.5 mg/kg/day | NOAEL [9]: 28.5 mg/kg/day

CCOC(=O)NCCOc1ccc(Oc2ccccc2)cc1 [Fenoxycarb]
LEL [10]: 500 mg/kg/day | LOAEL [10]: 500 mg/kg/day | NEL [10]: 150 mg/kg/day | NOAEL [10]: 150 mg/kg/day | LEL [11, 33]: 250 mg/kg/day | LOAEL [11, 33]: > 800 mg/kg/day | NEL [11, 33]: 80 mg/kg/day | NOAEL [11, 33]: ≥ 800 mg/kg/day | LEL [11, 34]: 80 mg/kg/day | LOAEL [11, 34]: 80 mg/kg/day | NEL [11, 34]: < 80 mg/kg/day | NOAEL [11, 34]: < 80 mg/kg/day | LEL ([12]; systemic / pathology gross / spleen / enlarged): 5.75 mg/kg/day | NEL ([12]; systemic / pathology gross / spleen / enlarged + systemic / pathology microscopic / liver / carcinoma + systemic / pathology microscopic / …): 1.1 mg/kg/day | LOAEL [12, 35]: 51.5 mg/kg/day | NOAEL [12, 35]: 5.33 mg/kg/day | LEL ([13]; systemic / clinical chemistry / phosphorus / phosphorus): 80 mg/kg/day | NOAEL ([13]; systemic / in life observation / body weight / body weight gain + systemic / clinical chemistry / phosphorus / phosphorus + systemic / organ…): 80 mg/kg/day | LOAEL [13, 36]: 260 mg/kg/day | NEL [13, 36]: 25 mg/kg/day | LEL [14]: 24.7 mg/kg/day | LOAEL [14]: 24.7 mg/kg/day | NEL [14]: 8.1 mg/kg/day | NOAEL [14]: 8.1 mg/kg/day | LEL [15, 37]: 300 mg/kg/day | LOAEL [15, 37]: 300 mg/kg/day | NEL [15, 37]: 200 mg/kg/day | NOAEL [15, 37]: 200 mg/kg/day | LEL [15, 38]: 200 mg/kg/day | LOAEL [15, 38]: 200 mg/kg/day | NEL [15, 38]: 100 mg/kg/day | NOAEL [15, 38]: 100 mg/kg/day

CC1(C)S[C@@H]2[C@H](NC(=O)COc3ccccc3)C(=O)N2[C@H]1C(=O)[O-].[K+] [Penicillin VK]
LEL [16, 39]: 500 mg/kg/day | NEL [16, 39]: < 500 mg/kg/day | LOAEL [16, 40]: > 1000 mg/kg/day | NOAEL [16, 40]: ≥ 1000 mg/kg/day | LOAEL [17, 41]: > 3000 mg/kg/day | NEL [17, 41]: 370 mg/kg/day | NOAEL [17, 41]: ≥ 3000 mg/kg/day | LEL ([17]; systemic / in life observation / clinical signs / defecation (diarrhea)): 750 mg/kg/day | LEL [18]: 100 mg/kg/day | LOAEL [18]: > 3000 mg/kg/day | NEL [18]: < 100 mg/kg/day | NOAEL [18]: ≥ 3000 mg/kg/day | LEL [19]: 500 mg/kg/day | LOAEL [19]: > 1000 mg/kg/day | NEL [19]: < 500 mg/kg/day | NOAEL [19]: ≥ 1000 mg/kg/day
